According to ChEMBL document CHEMBL2401691, “Synthesis and optimization of a novel series of HCV NS3 protease inhibitors: 4-arylproline analogs” (Bioorg Med Chem Lett, 2013):
Converted amounts (≈) assume the structure as drawn.

Legend:
[1] = Half life in human liver microsomes; type: ADME, Microsome
[2] = Solubility of the compound after 24 hrs at pH 7.2; type: physicochemical; conditions: buffer
[3] = Half life in rat liver microsomes; type: ADME, Microsome
[4] = Oral bioavailability in rat at 5 mg/kg; type: ADME, organism-based; conditions: in vivo
[5] = Total clearance in rat at 2 mg/kg, iv; type: ADME, organism-based; parameters: dose 2 mg/kg, route intravenous; conditions: in vivo
[6] = Drug uptake in rat liver at 5 mg/kg, po after 6 hrs; type: ADME, organism-based; parameters: dose 5 mg/kg, route oral; conditions: read-out: Drug uptake
[7] = AUC (0 to infinity) in rat at 5 mg/kg, po; type: ADME, organism-based; parameters: time infinity, dose 5 mg/kg, route oral; conditions: plasma
[8] = Volume of distribution at steady state in rat at 2 mg/kg, iv; type: ADME, organism-based; parameters: dose 2 mg/kg, route intravenous; conditions: in vivo, read-out: Vdss
[9] = Cmax in rat at 5 mg/kg, po; type: ADME, organism-based; parameters: dose 5 mg/kg, route oral; conditions: in vivo
[10] = Plasma concentration in rat at 5 mg/kg, po after 6 hrs; type: ADME, organism-based; parameters: dose 5 mg/kg, route oral
[11] = Ratio of drug level in rat liver to plasma at 5 mg/kg, po after 6 hrs; type: ADME, organism-based; parameters: dose 5 mg/kg, route oral
[12] = Half life in rat at 2 mg/kg, iv; type: ADME, organism-based; parameters: dose 2 mg/kg, route intravenous; conditions: in vivo

SMILES	half-life [1] [h]	solubility at 24 h [2] [µg/mL]	half-life [3] [h]	further results
C=C[C@@H]1C[C@]1(NC(=O)[C@@H]1C[C@@](OC)(c2ccc(-c3cc(C)ccc3OC)nc2)CN1C(=O)[C@@H](NC(=O)OC1CCCC1)C(C)(C)C)C(=O)NS(=O)(=O)C1CC1	1.4	310 (≈ 397 µM)	1.42	–
C=C[C@@H]1C[C@]1(NC(=O)[C@@H]1C[C@@](OC)(c2ccc(-c3cccc(OC)c3)cc2)CN1C(=O)[C@@H](NC(=O)OC1CCCC1)C(C)(C)C)C(=O)NS(=O)(=O)C1CC1	1.12	19 (≈ 24.8 µM)	–	–
C=C[C@@H]1C[C@]1(NC(=O)[C@@H]1C[C@@](OC)(c2ccc(-c3ccc(OC)cc3)cc2)CN1C(=O)[C@@H](NC(=O)OC1CCCC1)C(C)(C)C)C(=O)NS(=O)(=O)C1CC1	0.85	17 (≈ 22.2 µM)	1.4	–
C=C[C@@H]1C[C@]1(NC(=O)[C@@H]1C[C@@](OC)(c2ccc(-c3nccs3)nc2)CN1C(=O)[C@@H](NC(=O)OC1CCCC1)C(C)(C)C)C(=O)NS(=O)(=O)C1CC1	2.28	> 920	–	–
C=C[C@@H]1C[C@]1(NC(=O)[C@@H]1C[C@@](OC)(c2ccc(-c3ccccc3)nc2)CN1C(=O)[C@@H](NC(=O)OC1CCCC1)C(C)(C)C)C(=O)NS(=O)(=O)C1CC1	1.45	600 (≈ 815 µM)	2	–
C=C[C@@H]1C[C@]1(NC(=O)[C@@H]1C[C@@](OC)(c2ccc(-c3ccccc3OC)cc2)CN1C(=O)[C@@H](NC(=O)OC1CCCC1)C(C)(C)C)C(=O)NS(=O)(=O)C1CC1	0.717	36 (≈ 47.1 µM)	–	–

Now from value to molecule, other results behind:

half-life [1] [h]	solubility at 24 h [2] [µg/mL]	half-life [3] [h]	SMILES	further results
0.917	–	–	C=C[C@@H]1C[C@]1(NC(=O)[C@@H]1C[C@@](OC)(c2ccc(-c3ccc(C)cn3)cc2)CN1C(=O)[C@@H](NC(=O)OC1CCCC1)C(C)(C)C)C(=O)NS(=O)(=O)C1CC1	–
1.1	452 (≈ 609 µM)	1.1	C=C[C@@H]1C[C@]1(NC(=O)[C@@H]1C[C@@](OC)(c2ccc(-c3nccs3)cc2)CN1C(=O)[C@@H](NC(=O)OC1CCCC1)C(C)(C)C)C(=O)NS(=O)(=O)C1CC1	–
1.18	43 (≈ 58.5 µM)	1.98	C=C[C@@H]1C[C@]1(NC(=O)[C@@H]1C[C@@](OC)(c2ccc(-c3ccccc3)cc2)CN1C(=O)[C@@H](NC(=O)OC1CCCC1)C(C)(C)C)C(=O)NS(=O)(=O)C1CC1	bioavailability [4]: 33%; clearance [5]: 28 mL/min/kg; concentration at 6 h [6]: 2300 nM; AUC(0-inf) [7]: 1.32 µM·h; Vd [8]: 3.04 L/kg; Cmax [9]: 320 nM; concentration at 6 h [10]: 50 nM; Kp at 6 h [11]: 45; half-life [12]: 2.94 h
1.37	540 (≈ 731 µM)	2	C=C[C@@H]1C[C@]1(NC(=O)[C@@H]1C[C@@](OC)(c2ccc(-c3cnn(C)c3)cc2)CN1C(=O)[C@@H](NC(=O)OC1CCCC1)C(C)(C)C)C(=O)NS(=O)(=O)C1CC1	–
0.9	540 (≈ 728 µM)	3.67	C=C[C@@H]1C[C@]1(NC(=O)[C@@H]1C[C@@](OC)(c2ccc(-c3cscn3)cc2)CN1C(=O)[C@@H](NC(=O)OC1CCCC1)C(C)(C)C)C(=O)NS(=O)(=O)C1CC1	–
0.883	940 (≈ 1280 µM)	2.17	C=C[C@@H]1C[C@]1(NC(=O)[C@@H]1C[C@@](OC)(c2ccc(-c3cccnc3)cc2)CN1C(=O)[C@@H](NC(=O)OC1CCCC1)C(C)(C)C)C(=O)NS(=O)(=O)C1CC1	–
1.32	> 790	1.83	C=C[C@@H]1C[C@]1(NC(=O)[C@@H]1C[C@@](OC)(c2ccc(-c3ccncc3)cc2)CN1C(=O)[C@@H](NC(=O)OC1CCCC1)C(C)(C)C)C(=O)NS(=O)(=O)C1CC1	–
